Consider 1 compound from paper PMC6253949, “The Inhibitory Action of Kohamaic Acid A Derivatives on Mammalian DNA Polymerase β” (Molecules, 2008).

What all share (format): biochemical
In assay [1] the target is T1, Bovine Deoxyribonuclease I (Bos taurus, UniProt P00639).
T1 construct: Bovine pancreas deoxyribonuclease I (DNase I) was obtained from Stratagene Cloning Systems; purchased Stratagene Cloning Systems (La Jolla, CA, USA); host or cells: bovine pancreas
The experiment in a line: Deoxyribonuclease I assay. The source says: (§1) Pol α was purified from calf thymus by immuno-affinity column chromatography as described by Tamai et al.. Recombinant rat pol β was purified from E. coli JMpβ5 as described by Date et al.. The human pol γ catalytic gene was cloned into pFastBac. Histidine-tagged enzyme was expressed using the BAC-TO-BAC HT Baculovirus Expression System according to the supplier's manual (LIFE TECHNOLOGIES, MD, USA) and purified using ProBoundresin (Invitrogen Japan, Tokyo, Japan). Human pols δ and ε were purified by the nuclear fractionation of human peripheral blood cancer cells (Molt-4) using the second subunit of pols δ and ε-conjugated affinity column chromatography, respectively. Recombinant human pols η and ι tagged with His6 at their C-terminal were expressed in SF9 insect cells using the baculovirus expression system, and were purified as described previously. A truncated form of pol κ (i.e., hDINB1DC) with 6 x His-tags attached at the C-terminal was overproduced using the BAC-to-BAC Baculovirus Expression System kit (GIBCO BRL, MD, USA) and purified as described previously. […]
The primase activity of calf pol α, the activities of T7 RNA polymerase, T4 polynucleotide kinase and bovine DNase I were measured in standard assays according to the manufacturer's specifications as described by Tamiya-Koizumi et al., Nakayama et al., Soltis et al., and Lu and Sakaguchi, respectively.

Assay [2] concerns the target T2, Rat DNA polymerase β (Rattus norvegicus, UniProt P06766).
T2 construct: made in house; host or cells: E. coli JMpβ5
The experiment in a line: DNA polymerase assay, rat pol β. Conditions: for Inhibitory mode: Lineweaver Burk plot. The text has this:
Pol α was purified from calf thymus by immuno-affinity column chromatography as described by Tamai et al.. Recombinant rat pol β was purified from E. coli JMpβ5 as described by Date et al.. The human pol γ catalytic gene was cloned into pFastBac. Histidine-tagged enzyme was expressed using the BAC-TO-BAC HT Baculovirus Expression System according to the supplier's manual (LIFE TECHNOLOGIES, MD, USA) and purified using ProBoundresin (Invitrogen Japan, Tokyo, Japan). Human pols δ and ε were purified by the nuclear fractionation of human peripheral blood cancer cells (Molt-4) using the second subunit of pols δ and ε-conjugated affinity column chromatography, respectively. Recombinant human pols η and ι tagged with His6 at their C-terminal were expressed in SF9 insect cells using the baculovirus expression system, and were purified as described previously. A truncated form of pol κ (i.e., hDINB1DC) with 6 x His-tags attached at the C-terminal was overproduced using the BAC-to-BAC Baculovirus Expression System kit (GIBCO BRL, MD, USA) and purified as described previously. Recombinant human His-pol λ was overexpressed and purified according to a method described previously. Fish pol δ was purified from the testis of cherry salmon (Oncorhynchus masou). Pol I (α-like) from a higher plant, cauliflower inflorescence, was purified according to the methods outlined by Sakaguchi et al.. The Klenow fragment of pol I from E. coli was purchased from Worthington Biochemical Corp. (Freehold, NJ, USA). Taq pol, T4 pol, T7 RNA polymerase and T4 polynucleotide kinase were purchased from Takara (Kyoto, Japan). Bovine pancreas deoxyribonuclease I (DNase I) was obtained from Stratagene Cloning Systems (La Jolla, CA, USA).
The reaction mixtures for pol α, pol β, fish pol δ, plant pol I (α-like) and prokaryotic pols were described previously, and those for pol γ, and pols δ and ε were as described by Umeda et al. and Ogawa et al., respectively. The reaction mixtures for pols η, ι and κ were the same as for pol α, and the reaction mixture for pol λ was the same as that for pol β.
For pols, poly(dA)/oligo(dT)12-18 (A/T = 2/1) and dTTP were used as the DNA template-primer and nucleotide (i.e., dNTP) substrate, respectively. KA-A analogues (i.e., compounds 1–12) were dissolved in distilled dimethyl sulfoxide (DMSO) at various concentrations and sonicated for 30 sec. Aliquots of 4 μL of sonicated samples were mixed with 16 μL of each enzyme (final amount 0.05 units) in 50 mM Tris-HCl (pH 7.5) containing 1 mM dithiothreitol, 50% glycerol and 0.1 mM EDTA, and kept at 0 °C for 10 min. These inhibitor-enzyme mixtures (8 μl) were added to 16 μL of each of the enzyme standard reaction mixtures, and incubation was carried out at 37 °C for 60 min, except for Taq pol, which was incubated at 74 °C for 60 min. Activity without the inhibitor was considered 100%, and the remaining activity at each concentration of the inhibitor was determined relative to this value. One unit of pol activity was defined as the amount of enzyme that catalyzed the incorporation of 1 nmol of dNTP (i.e., dTTP) into synthetic DNA template-primers in 60 min at 37 °C under the normal reaction conditions for each enzyme.

Assay [3] deals with mammalian pols. The experiment in a line: DNA polymerase assays, all mammalian pols tested. To be noted: all mammalian pols tested (α, β, γ, δ, ε, η, ι, κ, λ); read-out: range of IC50 values for mammalian pols.
From the text: as §1
(§2) For pols, poly(dA)/oligo(dT)12-18 (A/T = 2/1) and dTTP were used as the DNA template-primer and nucleotide (i.e., dNTP) substrate, respectively. […] Activity without the inhibitor was considered 100%, and the remaining activity at each concentration of the inhibitor was determined relative to this value. […]

Assay [4] concerns the target T3, T4 DNA polymerase (Enterobacteria phage T4, UniProt P04415).
T3 construct: purchased Takara (Kyoto, Japan)
T3 sequence (P04415 1-898): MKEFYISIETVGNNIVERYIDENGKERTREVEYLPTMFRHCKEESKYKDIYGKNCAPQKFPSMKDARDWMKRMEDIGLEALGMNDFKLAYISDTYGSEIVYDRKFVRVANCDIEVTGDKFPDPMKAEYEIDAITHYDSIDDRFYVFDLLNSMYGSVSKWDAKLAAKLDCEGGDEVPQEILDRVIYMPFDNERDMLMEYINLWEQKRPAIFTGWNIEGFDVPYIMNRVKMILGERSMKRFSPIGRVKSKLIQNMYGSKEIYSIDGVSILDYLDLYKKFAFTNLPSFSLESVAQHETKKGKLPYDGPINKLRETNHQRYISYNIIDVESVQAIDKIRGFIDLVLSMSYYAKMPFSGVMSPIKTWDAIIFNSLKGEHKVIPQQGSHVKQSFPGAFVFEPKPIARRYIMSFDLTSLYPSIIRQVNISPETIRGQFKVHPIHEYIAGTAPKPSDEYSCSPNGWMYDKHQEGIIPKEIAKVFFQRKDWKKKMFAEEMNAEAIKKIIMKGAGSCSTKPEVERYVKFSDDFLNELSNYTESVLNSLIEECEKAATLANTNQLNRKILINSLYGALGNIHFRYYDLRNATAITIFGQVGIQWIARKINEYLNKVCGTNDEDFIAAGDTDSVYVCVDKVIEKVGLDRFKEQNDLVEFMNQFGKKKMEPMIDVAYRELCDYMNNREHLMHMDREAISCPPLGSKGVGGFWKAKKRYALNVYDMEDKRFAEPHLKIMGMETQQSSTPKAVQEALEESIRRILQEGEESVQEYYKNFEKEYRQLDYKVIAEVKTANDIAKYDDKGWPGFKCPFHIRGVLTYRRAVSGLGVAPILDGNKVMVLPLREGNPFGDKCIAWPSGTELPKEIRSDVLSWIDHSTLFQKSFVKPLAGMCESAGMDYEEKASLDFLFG
The experiment in a line: DNA polymerase assay, T4 pol.
From the text: as §1, §2

Assay [5] addresses T4, E. coli DNA polymerase I (Klenow fragment) (Escherichia coli, UniProt P00582).
T4 construct: The Klenow fragment of pol I from E. coli; purchased Worthington Biochemical Corp. (Freehold, NJ, USA)
The experiment in a line: DNA polymerase assay, Klenow fragment.
From the text: as §1, §2

T1 sequence (P00639 23-282): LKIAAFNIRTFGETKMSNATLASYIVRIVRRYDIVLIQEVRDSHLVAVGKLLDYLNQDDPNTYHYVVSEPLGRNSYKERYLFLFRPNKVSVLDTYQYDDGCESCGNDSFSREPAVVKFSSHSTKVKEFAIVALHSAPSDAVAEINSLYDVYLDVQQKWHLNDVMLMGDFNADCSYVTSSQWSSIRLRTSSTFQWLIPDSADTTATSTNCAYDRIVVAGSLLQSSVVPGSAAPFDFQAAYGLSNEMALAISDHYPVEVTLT
T4 sequence (P00582 324-928): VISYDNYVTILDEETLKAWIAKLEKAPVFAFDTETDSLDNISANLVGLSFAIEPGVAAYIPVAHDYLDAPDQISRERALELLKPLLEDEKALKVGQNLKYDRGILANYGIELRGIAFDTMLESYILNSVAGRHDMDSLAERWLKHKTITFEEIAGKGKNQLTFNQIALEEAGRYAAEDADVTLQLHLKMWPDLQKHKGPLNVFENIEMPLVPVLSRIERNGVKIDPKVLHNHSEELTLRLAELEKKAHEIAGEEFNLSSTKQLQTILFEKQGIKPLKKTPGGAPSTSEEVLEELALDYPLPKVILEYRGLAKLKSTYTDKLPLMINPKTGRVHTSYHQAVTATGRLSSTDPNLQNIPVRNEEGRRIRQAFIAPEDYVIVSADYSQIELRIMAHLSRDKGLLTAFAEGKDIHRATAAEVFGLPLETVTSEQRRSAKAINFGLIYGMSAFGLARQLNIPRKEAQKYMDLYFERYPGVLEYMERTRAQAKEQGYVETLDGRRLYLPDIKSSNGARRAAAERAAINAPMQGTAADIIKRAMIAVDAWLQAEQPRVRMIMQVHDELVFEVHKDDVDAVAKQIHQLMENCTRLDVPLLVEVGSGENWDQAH

Regarding `CC1=CC[C@H]2C(C)(C)CCC[C@]2(C)[C@H]1CCCCCCCCCCCCCCCCC(=O)O` (relative stereo) [compound 11, (1S*,4aS*,8aS*)-17-(1,4,4a,5,6,7,8,8a-octahydro-2,5,5,8a-tetramethylnaphthalen-1-yl)heptadecanoic acid], the IC50 in assay [1] was over 200 µM; in assay [2] (poly(dA)/oligo(dT)12-18 and dTTP, 0.05 units enzyme) it was 5.5 ± 0.28 µM; in assay [3], 3.22 to 8.76 µM; in assay [4], over 200 µM; in assay [5], over 200 µM. The “Relative activity of pol β” value in assay [2] (10 μM compound 11) is recorded as 15.5 ± 0.78%; in assay [2] (10 μM compound 11 + 50 μM poly (rC)) it was 15.2 ± 0.74%; in assay [2] (10 μM compound 11 + 200 μg/ml BSA) it was 15.9 ± 1.1%; in assay [2] (10 μM compound 11 + 0.05 % NP-40) it was 96.1 ± 7.6%; in assay [2] (10 μM compound 11 + 0.1 % NP-40), 100 ± 8.8%; in assay [2] (100 μM compound 11), 3.2 ± 0.16%. Besides, the “Relative activity of pol β” value in assay [2] (100 μM compound 11 + 50 μM poly (rC)) is 3.1 ± 0.15%; in assay [2] (100 μM compound 11 + 200 μg/ml BSA) it was 3.3 ± 0.19%; in assay [2] (100 μM compound 11 + 0.05 % NP-40), 62.5 ± 4.1%; in assay [2] (100 μM compound 11 + 0.1 % NP-40), 95.0 ± 7.6%. Besides, the “Inhibitory effect on pol β compared with KA-A” value in assay [2] (10 and 100 μM of compound (Figure 2B)) is reported as “strongest inhibitory effect”. Moreover, the Ki in assay [2] (DNA template-primer poly(dA)/oligo(dT)12-18, Dixon plot) amounted to 1.96 µM; in assay [2] (nucleotide substrate dTTP, Dixon plot), 2.36 µM. For the same compound, the Vmax in assay [2] (DNA template-primer poly(dA)/oligo(dT)12-18, unchanged at 0-9 μM compound 11) was 111 pmol/h; in assay [2] (nucleotide substrate dTTP, unchanged at 0-9 μM compound 11), 62.5 pmol/h. Besides, in assay [2] (comparison with dideoxyTTP), the “fold stronger pol β inhibitor than dideoxyTTP” value is 4 fold. Moreover, the Inhibitory mode entry in assay [2] (with respect to DNA template-primer) and in assay [2] (with respect to dNTP substrate) was “Competitive” in each case.

As usually defined, the IC50 is the point on the concentration scale where inhibition reaches its midpoint. The term Ki denotes a dissociation constant, usually derived from enzyme kinetics or from competition with a known ligand. What is called Vmax is the rate approached at saturating substrate.
